Here are results for one compound from paper PMC5963734 (Neuron, 2018).

This experiment relates to PSD-95 - α-actinin interaction. Conditions: acute forebrain slices, 100 μM NMDA for 5 min; Figure 7.

Consider `CN[C@H](CC(=O)O)C(=O)O` [NMDA], for which the “co-IP of CaM with PSD-95 after NMDA” value is “strongly increased” and the “co-IP of α-actinin with PSD-95 after NMDA” value is given as “nearly abolished”.
